Patent publication US20060134064A1, “Combined treatment with interferon-alpha and an epidermal growth factor receptor kinase inhibitor” (priority 2004, published 2006)
Where two headings read alike, the source gives them in different places.

Key:
colorectal cancer = details: cited from earlier work
BL-17/0/X1 = assay: Crystal violet nuclear staining assay, bladder cancer cell line BL-17/0/X1; assay type: cell-based; details: 2.5 μg/ml erlotinib, 96 h
From the text: (§1) It is known that 40-60% of bladder cancers over-express EGFR which provides an opportunity for targeted therapy.

MGHU3 = assay: Crystal violet nuclear staining assay, bladder cancer cell line MGHU3; assay type: cell-based; details: 2.5 μg/ml erlotinib, 96 h
From the text: as §1

HT1376 = assay: Crystal violet nuclear staining assay, bladder cancer cell line HT1376; assay type: cell-based; details: 2.5 μg/ml erlotinib, 96 h
From the text: as §1

[1] = tested on: bladder cancer cell lines; details: 10 μg/ml erlotinib; 8 of 9 cell lines
Procedure: Three different experimental schedules were performed: Single drug exposure over a range of concentrations of erlotinib, combination with IFN-α, and pre-treatment with IFN-α followed by erlotinib combined with IFN-α.
Cells were grown in 24-well plates and the antiproliferative effect was measured by crystal violet nuclear staining assay.

BL-17/2 = assay: Crystal violet nuclear staining assay, bladder cancer cell line BL-17/2; assay type: cell-based; details: 2.5 μg/ml erlotinib, 96 h
From the text: as §1

HER1/EGFR = assay: Cell-surface HER1/EGFR expression by immunofluorescent flow cytometry after IFNα treatment; assay type: cell-based, human; details: IFNα 100 IU/mL
Procedure: The cell-surface HER1/EGFR levels at 72 h and 96 h of culture, with or without IFN-α (50 or 100 IU/ml), were measured by immunofluorescent flow cytometry. Cells were seeded in 60×15 mm dishes (FALCON™, BD) and treated with 100 IU/mL of IFN-α. The treated and untreated cells were harvested at different time intervals using 0.02% EDTA in PBS, then washed twice with ice-cold PBS and counted. The mouse monoclonal antibody against the extracellular domain of human HER1/EGFR (Catlog No: MO886, DAKO) diluted 1 in 100 in PBS was added to the cells (1×10^6 cells in 100 μL volume), while an irrelevant IgG 2b was used as the isotype-matched antibody control. After 60 min on ice, cells were washed and incubated with 100 μL of fluorescein-isothiocyanate (FITC)-conjugated goat-anti-mouse IgG (Catlog No: 81-6511, ZYMED), 1 in 200 dilution in PBS, on ice for 30 min in the dark. The cells were then washed again twice and resuspended in 1% formaldehyde in PBS. Cell surface immunofluorescence was analysed on a FACSCalibur (BD) using CELLQuest software equipped with a 5 W argon ion laser tuned to 488 nm at 200 mW. Levels of protein expression were estimated as the geometric mean of fluorescence intensity (MFI) of anti-HER1/EGFR minus that of the isotype-matched antibody control. Ten thousand singlet and viable cells of the individual treated and control samples were measured. Duplicate experiments with triplicate samples were performed for all cells.
Cell-surface HER1/EGFR expression by untreated cell lines: All cell lines were measured first to obtain an untreated level of HER1/EGFR. Cells were harvested after 72 h of culture and measured by flow cytometry. The HER1/EGFR value was calculated as the geometric mean fluorescence intensity of anti-HER1/EGFR detection minus that of isotype control. SW620 cells were HER1/EGFR-negative. Other cell lines including DLD-1, HCT116, HT29, KM12SM, LIM2099, LIM2408, LOVO and SW480 all positively expressed HER1/EGFR.
The relationship between HER1/EGFR expression and IFNα treatment was assessed in all cell lines. Cells were all cultured with or without 100 IU/mL of IFNα (which mimics serum levels in humans given subcutaneous interferon (Robinson S. P., et al. (1990) Breast Cancer Res. Treat.; 5:95-101) for 72 and 96 h. The cell-surface HER1/EGFR expression at 72 h of culture from untreated and treated groups of individual cell lines detected using anti-HER1/EGFR antibody minus isotype control is shown in FIG. 1. IFNα treatment was associated with significant up-regulation of cell-surface HER1/EGFR expression in 7 of 8 HER1/EGFR-positive cell lines, including DLD-1 (HER1/EGFR level (mean plus/minus standard deviation of the mean) treated versus that untreated: 17.89+0.60/10.86+0.51, paired t test, p=0.005; 95% confidence interval of the difference: 4.88−9.16), HCT116 (22.75+0.79/7.80+0.22, p<0.001; 13.52−16.36), HT29 (11.12+0.20/8.58+0.24, p=0.004; 1.82−3.27), LIM2099 (22.19+0.56/12.82+0.52, p=0.001; 7.87−10.86), LIM2408 (22.93+0.53/10.77+0.21, p=0.001; 10.35−13.97), LOVO (14.77+0.34/8.12+0.25, p=0.003; 5.2−8.1), and SW480 (27.09+0.76/14.10+0.33, p=0.002; 10.66−15.32) cells. In contrast, HER1/EGFR expression levels were not increased in KM12SM cells after IFNα treatment. […] Consistently, at 96 h of culture the cell-surface HER1/EGFR expression from untreated and treated groups of individual cell lines followed the same trend. Since up-regulation of HER1/EGFR expression was sustained between 72 and 96 h, we thus chose 72 h for IFNα pretreatment and 96 h for combination treatment introduced below.

O=c1[nH]cc(F)c(=O)[nH]1 [5-fluorouracil]
response rates (colorectal cancer; single-agent treatment, advanced colorectal cancer): about 10%

C#Cc1cccc(Nc2ncnc3cc(OCCOC)c(OCCOC)cc23)c1 [erlotinib, [6,7-bis(2-methoxyethoxy)-4-quinazolin-4-yl]-(3-ethynylphenyl)amine]
growth rate of control cells (BL-17/0/X1): < 60%
growth rate of control cells (MGHU3): < 60%
growth rate of control cells (HT1376): < 60%
growth rate of control [1]: < 60%
growth rate of control cells (BL-17/2): < 60%

O=C1[O][Pt]2([NH][C@@H]3CCCC[C@H]3[NH]2)[O]C1=O [oxaliplatin]
response rates (colorectal cancer; combined with 5-FU and leucovorin, first-line treatment for colorectal cancer): 25-40%

IFNα
HER1/EGFR level (geometric mean fluorescence intensity minus isotype control), treated (HER1/EGFR; DLD-1 cells, 72 h, mean plus/minus SD): 17.89 ± 0.60
HER1/EGFR level (geometric mean fluorescence intensity minus isotype control), treated (HER1/EGFR; HCT116 cells, 72 h, mean plus/minus SD): 22.75 ± 0.79
Induction of HER1/EGFR expression by IFNα treatment (HER1/EGFR; HER1/EGFR-negative SW620 cells, 72 h): unable to induce HER1/EGFR expression
HER1/EGFR level (geometric mean fluorescence intensity minus isotype control), treated (HER1/EGFR; HT29 cells, 72 h, mean plus/minus SD): 11.12 ± 0.20
HER1/EGFR expression levels after IFNα treatment (HER1/EGFR; KM12SM cells, 72 h): not increased
HER1/EGFR level (geometric mean fluorescence intensity minus isotype control), treated (HER1/EGFR; LIM2099 cells, 72 h, mean plus/minus SD): 22.19 ± 0.56
HER1/EGFR level (geometric mean fluorescence intensity minus isotype control), treated (HER1/EGFR; LIM2408 cells, 72 h, mean plus/minus SD): 22.93 ± 0.53
HER1/EGFR level (geometric mean fluorescence intensity minus isotype control), treated (HER1/EGFR; LOVO cells, mean plus/minus SD (FIG. 1: LOVO measured at 24 h)): 14.77 ± 0.34
HER1/EGFR level (geometric mean fluorescence intensity minus isotype control), treated (HER1/EGFR; SW480 cells, 72 h, mean plus/minus SD): 27.09 ± 0.76
